Data published in ChEMBL document CHEMBL4270553, “Synthesis and anticancer activity of new dihydropyrimidinone derivatives” (Eur J Med Chem, 2018).

How the values were obtained:
Assay type in all cases: functional
HCT-116 = test: Antiproliferative activity against human HCT116 cells assessed as growth inhibition at 10 uM after 48 hrs by sulforhodamine B assay relative to control; details: HCT-116, 48 h, read-out: GI
OVCAR-4 = test: Antiproliferative activity against human OVCAR4 cells assessed as growth inhibition at 10 uM after 48 hrs by sulforhodamine B assay relative to control; details: OVCAR-4, 48 h, read-out: GI
K562 = test: Antiproliferative activity against human K562 cells assessed as growth inhibition at 10 uM after 48 hrs by sulforhodamine B assay relative to control; details: K562, 48 h, read-out: GI
SR = test: Antiproliferative activity against human SR cells assessed as growth inhibition at 10 uM after 48 hrs by sulforhodamine B assay relative to control; details: read-out: GI
NCI-H522 = test: Antiproliferative activity against human NCI-H522 cells assessed as growth inhibition at 10 uM after 48 hrs by sulforhodamine B assay relative to control; details: NCI-H522, 48 h, read-out: GI
MOLT-4 = test: Antiproliferative activity against human MOLT4 cells assessed as growth inhibition at 10 uM after 48 hrs by sulforhodamine B assay relative to control; details: MOLT-4, 48 h, read-out: GI
HL-60(TB) = test: Antiproliferative activity against human HL-60(TB) cells assessed as growth inhibition at 10 uM after 48 hrs by sulforhodamine B assay relative to control; details: HL-60, 48 h, read-out: GI
LOX IMVI = test: Antiproliferative activity against human LOXIMVI cells assessed as growth inhibition at 10 uM after 48 hrs by sulforhodamine B assay relative to control; details: read-out: GI
NCI/ADR-RES = test: Antiproliferative activity against human NCI/ADR-RES cells assessed as growth inhibition at 10 uM after 48 hrs by sulforhodamine B assay relative to control; details: read-out: GI
MDA-MB-468 = test: Antiproliferative activity against human MDA-MB-468 cells assessed as growth inhibition at 10 uM after 48 hrs by sulforhodamine B assay relative to control; details: MDA-MB-468, 48 h, read-out: GI
ACHN = test: Antiproliferative activity against human ACHN cells assessed as growth inhibition at 10 uM after 48 hrs by sulforhodamine B assay relative to control; details: read-out: GI
MCF7 = test: Antiproliferative activity against human MCF7 cells assessed as growth inhibition at 10 uM after 48 hrs by sulforhodamine B assay relative to control; details: MCF7, 48 h, read-out: GI
SF-295 = test: Antiproliferative activity against human SF295 cells assessed as growth inhibition at 10 uM after 48 hrs by sulforhodamine B assay relative to control; details: SF-295, 48 h, read-out: GI
HCT-15 = test: Antiproliferative activity against human HCT15 cells assessed as growth inhibition at 10 uM after 48 hrs by sulforhodamine B assay relative to control; details: HCT-15, 48 h, read-out: GI
T47D = test: Antiproliferative activity against human T47D cells assessed as growth inhibition at 10 uM after 48 hrs by sulforhodamine B assay relative to control; details: read-out: GI
UO-31 = test: Antiproliferative activity against human UO31 cells assessed as growth inhibition at 10 uM after 48 hrs by sulforhodamine B assay relative to control; details: UO-31, 48 h, read-out: GI
SK-MEL-5 = test: Antiproliferative activity against human SK-MEL-5 cells assessed as growth inhibition at 10 uM after 48 hrs by sulforhodamine B assay relative to control; details: SK-MEL-5, 48 h, read-out: GI
UACC-62 = test: Antiproliferative activity against human UACC62 cells assessed as growth inhibition at 10 uM after 48 hrs by sulforhodamine B assay relative to control; details: UACC-62, 48 h, read-out: GI
CAKI-1 = test: Antiproliferative activity against human Caki1 cells assessed as growth inhibition at 10 uM after 48 hrs by sulforhodamine B assay relative to control; details: CAKI-1, 48 h, read-out: GI
NCI-H322M = test: Antiproliferative activity against human NCI-H322M cells assessed as growth inhibition at 10 uM after 48 hrs by sulforhodamine B assay relative to control; details: read-out: GI
NCI-H460 = test: Antiproliferative activity against human NCI-H460 cells assessed as growth inhibition at 10 uM after 48 hrs by sulforhodamine B assay relative to control; details: NCI-H460, 48 h, read-out: GI
PC-3 = test: Antiproliferative activity against human PC3 cells assessed as growth inhibition at 10 uM after 48 hrs by sulforhodamine B assay relative to control; details: PC-3, 48 h, read-out: GI
A549 = test: Antiproliferative activity against human A549/ATCC cells assessed as growth inhibition at 10 uM after 48 hrs by sulforhodamine B assay relative to control; details: A549, 48 h, read-out: GI

SMILES	inhibition of growth at 10 µM (HCT-116) [%]	inhibition of growth at 10 µM (OVCAR-4) [%]	inhibition of growth at 10 µM (K562) [%]	inhibition of growth at 10 µM (SR) [%]	inhibition of growth at 10 µM (NCI-H522) [%]	inhibition of growth at 10 µM (MOLT-4) [%]	inhibition of growth at 10 µM (HL-60(TB)) [%]	inhibition of growth at 10 µM (LOX IMVI) [%]	inhibition of growth at 10 µM (NCI/ADR-RES) [%]	inhibition of growth at 10 µM (MDA-MB-468) [%]	inhibition of growth at 10 µM (ACHN) [%]	inhibition of growth at 10 µM (MCF7) [%]	inhibition of growth at 10 µM (SF-295) [%]	inhibition of growth at 10 µM (HCT-15) [%]	inhibition of growth at 10 µM (T47D) [%]	inhibition of growth at 10 µM (UO-31) [%]	inhibition of growth at 10 µM (SK-MEL-5) [%]	inhibition of growth at 10 µM (UACC-62) [%]	inhibition of growth at 10 µM (CAKI-1) [%]	inhibition of growth at 10 µM (NCI-H322M) [%]	also measured
CCOC(=O)C1=C(CSc2nnnn2-c2ccccc2)N(C)C(=O)NC1c1ccccc1 (stereo not drawn)	12	4	17	13	14	26	7	14	14	3	3	15	11	8	17	21	2	17	14	18	
CCOC(=O)C1=C(CN2CCCC2)N(C)C(=O)NC1c1ccccc1 (stereo not drawn)	2		1	10	4	4		8	3			13	9	6	1	8			9	9	
CCOC(=O)C1=C(CSC(=S)N2CCN(c3ccc(OC)cc3)CC2)N(C)C(=O)NC1c1ccccc1 (stereo not drawn)	57	29	47	63	37	49	32	33	13	21	21	30	15	60	59	55	51	42	26	17	inhibition of growth at 10 µM (NCI-H460): 39%; inhibition of growth at 10 µM (PC-3): 53%; inhibition of growth at 10 µM (A549): 33%
CCOC(=O)C1=C(CSc2nnc(-c3ccccc3)o2)N(C)C(=O)NC1c1ccccc1 (stereo not drawn)	19	14	34	16	16	29	11	27	15	17	3	11	14	15	25	34	10	10	14	15	inhibition of growth at 10 µM (PC-3): 20%; inhibition of growth at 10 µM (A549): 5%
CCOC(=O)C1=C(CSc2nc3ccccc3[nH]2)N(C)C(=O)NC1c1ccccc1 (stereo not drawn)	6		10	1	3	14	6	11	6	1	2	14	7	7		4		11	2	12	inhibition of growth at 10 µM (PC-3): 8%
CCOC(=O)C1=C(CSC(=S)N2CCCCC2)N(C)C(=O)NC1c1ccccc1 (stereo not drawn)	34	16	20	27	25	30	33	11	12	20	15	12	13	35	45	29	25	28	17	15	inhibition of growth at 10 µM (NCI-H460): 10%; inhibition of growth at 10 µM (PC-3): 27%; inhibition of growth at 10 µM (A549): 29%
CCOC(=O)C1=C(CSC2=NCCS2)N(C)C(=O)NC1c1ccccc1 (stereo not drawn)	10	16	24	40	19	19	10	16	15	11	17	19	10	28	37	21	4	27	24	27	inhibition of growth at 10 µM (NCI-H460): 2%; inhibition of growth at 10 µM (A549): 16%
CCOC(=O)C1=C(Cn2cc(CO)nn2)N(C)C(=O)NC1c1ccccc1 (stereo not drawn)	5	3	10	2	5	11	2	7	4		2	12	4	6	1	7			8	9	
CCOC(=O)C1=C(CSC(=S)N2CCOCC2)N(C)C(=O)NC1c1ccccc1 (stereo not drawn)	6		83	12	7	5	4	12	6	6	7	14	9	7	18	9	1	16		18	inhibition of growth at 10 µM (A549): 4%
